The OligoGym collection
HELM strings list units from the 5' end as sugar, base in round brackets, then linkage (d deoxyribose, r ribose, m 2'-O-methyl, p phosphodiester). Strings are as the collection lists them, not checked against the first reports. ss, as = sense and antisense strand; [lna] = locked nucleic acid (LNA); [fl2r] = 2'-fluoro

Conditions: siRNA
Also: test system not given here.

Substance	target mRNA knockdown
RNA1{[lna](G)p.r(C)p.r(A)p.r(G)p.r(C)p.r(A)p.r(C)p.r(G)p.r(A)p.r(C)p.r(U)p.r(U)p.r(C)p.r(U)p.r(U)p.r(C)p.r(A)p.r(A)p.r(G)p.r(U)p.r(U)}|RNA2{r(C)p.m(U)p.r(U)p.r(G)p.r(A)p.r(A)p.r(G)p.r(A)p.r(A)p.r(G)p.r(U)p.r(C)p.r(G)p.r(U)p.r(G)p.r(C)p.r(U)p.r(G)p.r(C)p.r(U)p.r(U)}$$$RNA1{StrandType:ss}|RNA2{StrandType:as}$	68.6%
RNA1{r(G)p.r(G)p.r(G)p.r(A)p.r(A)p.r(A)p.r(C)p.r(U)p.r(G)p.r(A)p.r(A)p.r(A)p.r(G)p.r(G)p.r(C)p.r(U)p.r(A)p.r(U)p.r(G)p.r(T)p.r(T)}|RNA2{[fl2r](C)p.r(A)p.[fl2r](U)p.r(A)p.r(G)p.[fl2r](C)p.[fl2r](C)p.[fl2r](U)p.[fl2r](U)p.[fl2r](U)p.[fl2r](C)p.r(A)p.r(G)p.[fl2r](U)p.[fl2r](U)p.[fl2r](U)p.[fl2r](C)p.[fl2r](C)p.[fl2r](C)p.r(T)p.r(T)}$$$RNA1{StrandType:ss}|RNA2{StrandType:as}$	6%
RNA1{[fl2r](A)p.r(U)p.[fl2r](C)p.r(G)p.[fl2r](C)p.r(U)p.[fl2r](G)p.r(C)p.[fl2r](U)p.r(C)p.[fl2r](C)p.r(U)p.[fl2r](C)p.r(C)p.[fl2r](U)p.r(C)p.[fl2r](C)p.r(U)p.[fl2r](C)p.r(T)p.r(T)}|RNA2{r(G)p.r(A)p.r(G)p.r(G)p.r(A)p.r(G)p.r(G)p.r(A)p.r(G)p.r(G)p.r(A)p.r(G)p.r(C)p.r(A)p.r(G)p.r(C)p.r(G)p.r(A)p.[fl2r](U)p.r(T)p.r(T)}$$$RNA1{StrandType:ss}|RNA2{StrandType:as}$	39%
RNA1{r(A)p.r(A)p.r(A)p.r(C)p.r(C)p.r(C)p.r(C)p.[fl2r](U)p.r(A)p.r(G)p.r(A)p.r(G)p.r(G)p.r(G)p.[fl2r](C)p.r(A)p.r(A)p.r(G)p.r(U)p.r(T)p.r(T)}|RNA2{r(A)p.r(C)p.r(U)p.r(U)p.r(G)p.r(C)p.r(C)p.r(C)p.r(U)p.r(C)p.r(U)p.r(A)p.r(G)p.r(G)p.r(G)p.r(G)p.r(U)p.r(U)p.r(U)p.r(T)p.r(T)}$$$RNA1{StrandType:ss}|RNA2{StrandType:as}$	83%
RNA1{r(G)p.r(G)p.m(U)p.r(A)p.r(G)p.r(A)p.r(A)p.r(U)p.r(A)p.r(G)p.r(G)p.r(U)p.r(U)p.r(U)p.r(U)p.r(C)p.r(C)p.r(C)p.r(C)p.r(T)p.r(T)}|RNA2{r(G)p.r(G)p.r(G)p.r(G)p.r(A)p.r(A)p.r(A)p.r(A)p.r(C)p.r(C)p.m(U)p.r(A)p.r(U)p.r(U)p.r(C)p.r(U)p.r(A)p.r(C)p.r(C)p.r(T)p.r(T)}$$$RNA1{StrandType:ss}|RNA2{StrandType:as}$	82%
RNA1{r(G)p.r(A)p.m(U)p.r(A)p.r(G)p.r(G)p.r(A)p.r(A)p.r(G)p.r(G)p.r(G)p.m(G)p.r(C)p.r(U)p.r(U)p.m(C)p.r(A)p.r(G)p.r(C)p.r(T)p.r(T)}|RNA2{r(G)p.r(C)p.m(U)p.r(G)p.r(A)p.r(A)p.r(G)p.r(C)p.r(C)p.r(C)p.r(C)p.r(U)p.r(U)p.r(C)p.r(C)p.m(U)p.r(A)p.r(U)p.r(C)p.r(T)p.r(T)}$$$RNA1{StrandType:ss}|RNA2{StrandType:as}$	42%
RNA1{r(A)p.r(A)p.r(A)p.r(C)p.r(C)p.r(U)p.m(C)p.r(A)p.r(G)p.r(C)p.r(C)p.r(C)p.m(U)p.r(A)p.r(A)p.r(C)p.r(G)p.r(G)p.r(U)p.r(T)p.r(T)}|RNA2{r(A)p.r(C)p.r(C)p.r(G)p.r(U)p.m(U)p.r(A)p.r(G)p.r(G)p.r(G)p.r(C)p.m(U)p.r(G)p.r(A)p.r(G)p.r(G)p.r(U)p.r(U)p.r(U)p.r(T)p.r(T)}$$$RNA1{StrandType:ss}|RNA2{StrandType:as}$	70%
RNA1{r(A)p.r(G)p.m(A)p.r(G)p.r(A)p.r(G)p.r(G)p.m(U)p.r(G)p.r(G)p.r(A)p.r(G)p.r(G)p.m(U)p.r(A)p.r(U)p.r(C)p.r(U)p.r(C)p.r(T)p.r(T)}|RNA2{r(G)p.r(A)p.r(G)p.r(A)p.m(U)p.r(A)p.r(C)p.r(C)p.r(U)p.r(C)p.m(C)p.r(A)p.r(C)p.r(C)p.r(U)p.m(C)p.r(U)p.r(C)p.r(U)p.r(T)p.r(T)}$$$RNA1{StrandType:ss}|RNA2{StrandType:as}$	87%
